According to patent publication US20230374503A1, “COMBINATION” (AstraZeneca AB, priority 2014, published 2023):
In the oligonucleotide strings, read from the 5' end, every base follows the letter of its sugar. An asterisk marks phosphorothioate; unmarked linkages are phosphodiester. Other units and linkages are bracketed, terminal groups are in braces. A string of capitals states the bases alone. k = constrained ethyl (cEt); [5mC] = 5-methylcytosine; d = 2'-deoxy (DNA)

Tests used:
[1] = system: CT-26 tumors; test: CT-26 tumor volume with control ASO and isotype control antibody (Example 4); type: in vivo, mouse; conditions: FIG. 4
Protocol: (§1) The antitumor efficacy of mouse STAT3 ASO in combination with antibodies targeting PD-L1 or CTLA-4, or with an OX40 ligand fusion protein, were evaluated in three mouse syngeneic tumor models: CT-26 (colorectal), 4T1 (mammary) and A20 (lymphoma). Details of tumor implantation and treatment schedules for each model are in the table below. The QD×5/wk dosing schedule for the STAT3 ASO (same ASO as used in Example 1) was 5 days of treatment followed by 2 days without treatment. The 2×/wk dosing schedule for antibodies was 2 treatments/wk evenly spaced over the course of the week (e.g., Monday and Thursday, or Tuesday and Friday, etc.). ASO treatments began before randomization into treatment groups. […] There were ten mice in each treatment group.
(§2) The mouse STAT3 ASO was formulated in PBS and dosed subcutaneously. The Abs and FP were also formulated in PBS, and dosed introperitoneally. During the course of the experiment, tumor length and width were measured by caliper, and tumor volume calculated using the formula volume=(length×width^2)*π/6.
The CT-26 experiment in Example 3 included treatment with a control ASO (AZD9150) and an isotype control antibody (rat IgG2b, product LTF-2, purchased from BioXCell, West Lebanon NH) as negative controls.

[2] = system: mouse STAT3 sequences; test: Cross reaction of human STAT3 ASO with mouse STAT3 sequences; conditions: human STAT3 targeted ASO
[3] = system: immune-related genes; test: Nanostring gene expression profiling of patient tumor biopsies, Phase I trial (Example 8); type: in vivo, human; conditions: DLBCL patients; 2 or 3 mg/kg; 4-6 weeks on treatment vs baseline; five of six signature genes
Protocol: Tumor biopsies were collected in a Phase I clinical trial from cancer patients treated with AZD9150 before treatment started and at 4-6 weeks after treatment commenced. Patients received three loading doses 2 or 3 mg/kg AZD9150 during the first week on days 1, 3, and 5, followed by weekly doses thereafter. Nine of the sets of biopsies were from patients with Diffuse Large B Cell Lymphoma, two were from patients with follicular lymphoma, and one was from a patient with non-small cell lung cancer. The biopsies were formalin fixed and paraffin embedded and sectioned. RNA was isolated from six five-micron sections of each biopsy and subjected to Nanostring gene expression profiling analysis using the nCounter Human Immunology Codeset representing 594 immune-related genes. Raw data were calibrated according to Veldman-Jones et al., (Cancer Research. 75:2587, 2015) and analyzed for changes on-treatment compared to the baseline pretreatment samples. A heatmap representing unsupervised clustering of the largest and most statistically relevant gene expression changes in DLBCL was generated.

[4] = system: DLBCL and HCC; test: AZD9150 Phase I clinical trials; type: in vivo, human
[5] = system: advanced melanoma; conditions: phase III; cited from earlier work
[6] = system: xenograft model; conditions: via a T-cell dependent mechanism; cited from earlier work
[7] = system: CT-26 (colorectal), 4T1 (mammary) and A20 (lymphoma); test: Three mouse syngeneic tumor models, tumor volume (Example 3); type: in vivo; conditions: at the doses and schedules of Example 3; FIG. 3
Protocol: as §1, §2

## AZD9150: human STAT3 antisense 3-10-3 cEt gapmer, phosphorothioate, 5-methylcytosines, CTATTTGGATGTCAGC (SEQ ID NO: 2) (antisense k[5mC]*kT*kA*dT*dT*dT*dG*dG*dA*dT*dG*dT*d[5mC]*kA*kG*k[5mC])
[1]; AZD9150 plus PD-L1 Ab, CT-26 tumors
  enhancement of the activity of the anti-PD-L1 antibody: no enhancement of the activity of the anti-PD-L1 antibody
[1]; mice bearing CT-26 tumors
  antitumor activity of negative controls: No Antitumor Activity
[2]
  cross reaction with mouse STAT3 sequences: does not cross react with mouse STAT3 sequences
[3]
  upregulated "interferon gamma gene signature" genes in tumor biopsies: STAT1, IFN-gamma, CXCL9, CXCL10, and IDO
[4]
  clinical response: clinical responses in DLBCL and HCC at tolerated doses

## tremelimumab: human IgG2 monoclonal antibody highly selective for CTLA-4
[5]
  overall survival compared to standard of care (temozolomide or dacarbazine): did not significantly increase the overall survival

B1: MEDI4736: human monoclonal antibody directed against human PD-L1 (antibody, V domains shown)
VH: EVQLVESGGGLVQPGGSLRLSCAASGFTFSRYWMSWVRQAPGKGLEWVANIKQDGSEKYYVDSVKGRFTISRDNAKNSLYLQMNSLRAEDTAVYYCAREGGWFGELAFDYWGQGTLVTVSS
VL: EIVLTQSPGTLSLSPGERATLSCRASQRVSSSYLAWYQQKPGQAPRLLIYDASSRATGIPDRFSGSGSGTDFTLTISRLEPEDFAVYYCQQYGSLPWTFGQGTKVEIK
modifications: MEDI4736 VH; Sequence 72 from PCT/US2010/058007; MEDI4736 VL; Sequence 77 from PCT/US2010/058007
notes: human monoclonal antibody directed against human PD-L1
[6]
  tumor growth in a xenograft model: inhibits tumor growth

B2: OX40 ligand FP: Mouse OX40 ligand fusion protein generated in house, SEQ ID NO: 37 and 38 (protein)
chain: VPRDCGCKPCICTVPEVSSVFIFPPKPKDVLTITLTPKVTCVVVDISKDDPEVQFSWFVDDVEVHTAQTQPREEQFNSTFRSVSELPIMHQDWLNGKEFKCRVNSAAFPAPIEKTISKTKGRPKAPQVYTIPPPKEQMAKDKVSLTCMITDFFPEDITVEWQWNGQPAENYKNTQPIMDTDGSYFVYSKLNVQKSNWEAGNTFTCSVLHEGLHNHHTEKSLSHSPGKRLDQDKIEALSNKVQQLERSIGLKDLAMADLEQKVSELEVSTSSPAKDPPIQRLRGAVTRCEDGQLFISSYKNEYQTMEVQNNSVVIKCDGLYIIYLKGSFFQEVKIDLHFREDHNPISIPMLNDGRRIVFTVVASLAFKDKVYLTVNAPDTLCEHLQINDGELIVVQLTPGYCAPEGSYHSTVNQVPL
modifications: misc_feature 1..1248 DNA Sequence of mouse construct mIgG1mTF2mOX40L
[7]
  single agent antitumor activity: weak to modest single agent antitumor activity
